{"source": "paper PMC7744773", "about": "(Redox Biology, 2020)", "target": "CrGSNOR1 (Chlamydomonas reinhardtii, UniProt A0A2K3D6R4)", "sequence (A0A2K3D6R4 1-378)": "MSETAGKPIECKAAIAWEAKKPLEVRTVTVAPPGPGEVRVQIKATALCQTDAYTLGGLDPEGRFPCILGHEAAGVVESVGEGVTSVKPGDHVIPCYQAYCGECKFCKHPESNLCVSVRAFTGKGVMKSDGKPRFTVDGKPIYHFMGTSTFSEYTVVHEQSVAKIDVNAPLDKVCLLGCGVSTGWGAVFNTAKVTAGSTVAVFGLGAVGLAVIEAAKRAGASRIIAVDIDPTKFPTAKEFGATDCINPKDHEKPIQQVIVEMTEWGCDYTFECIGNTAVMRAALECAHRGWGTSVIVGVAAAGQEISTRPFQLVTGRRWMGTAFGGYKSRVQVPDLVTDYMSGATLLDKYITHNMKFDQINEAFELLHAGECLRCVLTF", "assay": "X-ray crystal structure, […] Å", "conditions": "co-crystallised with 1 mM NAD^+, pH 8.5; cofactor-binding domain"}
{"molecule": "NC(=O)c1ccc[n+]([C@@H]2O[C@H](COP(=O)(O)OP(=O)(O)OC[C@H]3O[C@@H](n4cnc5c(N)ncnc54)[C@H](O)[C@@H]3O)[C@@H](O)[C@H]2O)c1", "note": "[NAD^+]", "values": [{"measurement": "X-ray crystal structure, 2.3 Å", "value": "crystal structure of CrGSNOR1 under both apo- and holo-form (NAD^+-CrGSNOR1)"}]}
